Test results published in US20250346593A1, “IMIDAZO(1,2-1)PYRIDINE DERIVATIVES AS RIPK2 INHIBITORS” (Interline Therapeutics, Inc., priority 2022, published 2025).
pIC50: −log10 of the molar value. Like-named read-outs stand apart in the source and are kept apart here.

Experiments:
[1] = system: NF-κB pathway (SEAP) in THP1-Dual cells; assay: THP-1 Dual cell SEAP assay (L18-MDP stimulated); format: cell-based; conditions: read-out: NFkB THP1 IC50
[2] = target: GST-RIPK2 fusion protein (human RIPK2 amino acids 1-310) (Homo sapiens (Human), UniProt O43353); assay: RIPK2 binding competition assay (TR-FRET, Tracer 199)
GST-RIPK2 fusion protein (human RIPK2 amino acids 1-310), sequence (O43353 1-310): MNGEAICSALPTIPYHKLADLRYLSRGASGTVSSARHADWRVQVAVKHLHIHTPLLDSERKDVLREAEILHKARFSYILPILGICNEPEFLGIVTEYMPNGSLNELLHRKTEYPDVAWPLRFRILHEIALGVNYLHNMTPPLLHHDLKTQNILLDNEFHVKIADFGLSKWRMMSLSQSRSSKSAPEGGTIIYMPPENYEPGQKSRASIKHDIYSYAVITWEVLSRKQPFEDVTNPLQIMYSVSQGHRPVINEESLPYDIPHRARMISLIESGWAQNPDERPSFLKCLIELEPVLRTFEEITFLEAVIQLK

[3] = read-out: RIPK2 IC50, RIPK2 binding competition assay

SMILES | pIC50 ([1]; Homo sapiens, THP1-Dual) | pIC50 [2, 3] | pIC50 [2] | pIC50 [1]
COc1cc2ncc(-c3cnc(N)cc3F)n2cc1S(=O)(=O)C(C)(C)C [Example 21, 5-(6-(tert-butylsulfonyl)-7-methoxyimidazo[1,2-a]pyridin-3-yl)-4-fluoropyridin-2-amine] | < 6.00 | < 7.70 | – | –
CCCS(=O)(=O)Nc1cc(OC)cc(-c2cnc3cc(OC)c(S(=O)(=O)C(C)(C)C)cn23)n1 [Example 161, N-(6-(6-(tert-butylsulfonyl)-7-methoxyimidazo[1,2-a]pyridin-3-yl)-4-methoxypyridin-2-yl)propane-1-sulfonamide] | 6.00 to 6.60 | – | 7.70 to 8.60 | –
COc1cc2ncc(-c3ccc(S(N)(=O)=O)cc3)n2cc1S(=O)(=O)C(C)(C)C [Example 152, 4-(6-(tert-butylsulfonyl)-7-methoxyimidazo[1,2-a]pyridin-3-yl)benzenesulfonamide] | < 6.00 | < 7.70 | – | –
COc1cc2ncc(-c3cc(N)c(OC)c(C#N)c3)n2cc1S(=O)(=O)C(C)(C)C [Example 51, 3-amino-5-(6-(tert-butylsulfonyl)-7-methoxyimidazo[1,2-a]pyridin-3-yl)-2-methoxybenzonitrile] | < 6.00 | < 7.70 | – | –
COc1cc2ncc(-c3ccc(OC)c(Cl)n3)n2cc1S(=O)(=O)C(C)(C)C [Example 158, 6-(tert-butylsulfonyl)-3-(6-chloro-5-methoxypyridin-2-yl)-7-methoxyimidazo[1,2-a]pyridine] | < 6.00 | < 7.70 | – | –
COc1cc2ncc(-c3cc(NS(C)(=O)=O)c(OC)c(OC)c3)n2cc1S(=O)(=O)C(C)(C)C [Example 285, N-(5-(6-(tert-butylsulfonyl)-7-methoxyimidazo[1,2-a]pyridin-3-yl)-2,3-dimethoxyphenyl)methane sulfonamide] | > 7.30 | > 9.00 | – | –
COc1ccn2c(-c3cc(F)nc(NCCCO)c3)cnc2c1 [Example 234, 3-[(6-fluoro-4-{7-methoxyimidazo[1,2-a]pyridin-3-yl}pyridin-2-yl)amino]propan-1-ol] | 6.60 to 7.30 | – | 7.70 to 8.60 | –
CCCNc1cc(-c2cnc3cc(OC)c(S(=O)(=O)C(C)(C)C)cn23)cc(F)n1 [Example 181, 4-(6-(tert-butylsulfonyl)-7-methoxyimidazo[1,2-a]pyridin-3-yl)-6-fluoro-N-propylpyridin-2-amine] | > 7.30 | > 9.00 | – | –
COc1cc2ncc(-c3cnc(N)c(OC)c3)n2cc1S(=O)(=O)C(C)(C)C [Example 17, 5-(6-(tert-butylsulfonyl)-7-methoxyimidazo[1,2-a]pyridin-3-yl)-3-methoxypyridin-2-amine] | < 6.00 | < 7.70 | – | –
COc1cc2ncc(-c3cccc(CS(C)(=O)=O)c3)n2cc1S(=O)(=O)C(C)(C)C [Example 156, 6-(tert-butylsulfonyl)-7-methoxy-3-(3-((methylsulfonyl)methyl)phenyl)imidazo[1,2-a]pyridine] | < 6.00 | < 7.70 | – | –
CCOc1cc2ncc(-c3cc(F)c(N)nc3F)n2cc1S(=O)(=O)C(C)C [Example 119, 5-[6-ethoxy-5-(isopropylsulfonyl)-1,3a-diaza-3-indenyl]-3,6-difluoro-2-pyridylamine] | < 6.00 | – | 7.70 to 8.60 | –
COc1cc2ncc(-c3cc(F)c(OC)c(C4CC4)c3)n2cc1S(=O)(=O)C(C)(C)C [Example 340] | 6.60 to 7.30 | – | 8.60 to 9.00 | –
COc1cc2ncc(-c3cc(F)nc(NCC[C@@H]4CNC(=O)C4)c3)n2cc1S(=O)(=O)C(C)(C)C (single isomer, unassigned) [Example 241, (4R or S)-4-[2-({6-fluoro-4-[7-methoxy-6-(2-methylpropane-2-sulfonyl)imidazo[1,2-a]pyridin-3-yl]pyridin-2-yl}amino)ethyl] pyrrolidin-2-one] | > 7.30 | – | > 9.00 | –
COc1cc2ncc(-c3cc(F)nc(NC[C@@H](O)CO)c3)n2cc1S(=O)(=O)C(C)(C)C [Example 195, (R)-3-((4-(6-(tert-butylsulfonyl)-7-methoxyimidazo[1,2-a]pyridin-3-yl)-6-fluoropyridin-2-yl)amino)propane-1,2-diol] | > 7.30 | > 9.00 | – | –
COc1cc2ncc(-c3cc(F)c(OCCO)c(Br)c3)n2cc1S(=O)(=O)C(C)(C)C [Example 306, 2-(2-bromo-4-(6-(tert-butylsulfonyl)-7-methoxyimidazo[1,2-a]pyridin-3-yl)-6-fluorophenoxy)ethan-1-ol] | 6.60 to 7.30 | – | 7.70 to 8.60 | –
COc1cc2ncc(-c3cc(F)nc(NCC4CCC(=O)NC4)c3)n2cc1S(=O)(=O)C(C)(C)C (stereo not drawn) [Example 185, 5-(((4-(6-(tert-butylsulfonyl)-7-methoxyimidazo[1,2-a]pyridin-3-yl)-6-fluoropyridin-2-yl)amino)methyl) piperidin-2-one] | > 7.30 | > 9.00 | – | –
COc1cc2ncc(-c3cc(NCCCO)ncc3C)n2cc1S(=O)(=O)C(C)(C)C [Example 309, 3-({4-[7-Methoxy-6-(2-methylpropane-2-sulfonyl)imidazo[1,2-a]pyridin-3-yl]-5-methylpyridin-2-yl}amino)propan-1-ol] | < 6.00 | < 7.70 | – | –

SMILES | pIC50 ([1]; Homo sapiens, THP1-Dual) | pIC50 [2, 3] | pIC50 [2] | pIC50 [1]
COc1cc(N)cc(-c2cnn3ccc(S(=O)(=O)C(C)(C)C)cc23)c1 [Example 24, 3-(5-(tert-butylsulfonyl)pyrazolo [1,5-a]pyridin-3-yl)-5-methoxyaniline] | < 6.00 | < 7.70 | – | –
COc1cc2ncc(-c3ccc(F)nc3F)n2cc1S(=O)(=O)C(C)(C)C [Example 9, 6-(tert-butylsulfonyl)-3-(2,6-difluoropyridin-3-yl)-7-methoxyimidazo[1,2-a]pyridine] | < 6.00 | < 7.70 | – | –
COc1cc2ncc(-c3cc(F)nc(NCC[C@H]4CNC(=O)C4)c3)n2cc1S(=O)(=O)C(C)(C)C (single isomer, unassigned) [Example 240, (4R or S)-4-[2-({6-fluoro-4-[7-methoxy-6-(2-methylpropane-2-sulfonyl)imidazo[1,2-a]pyridin-3-yl]pyridin-2-yl}amino)ethyl] pyrrolidin-2-one] | > 7.30 | – | > 9.00 | –
CCOc1cn2ncc(-c3cc(F)c(N)nc3F)c2cc1S(=O)(=O)C(C)(C)C [Example 115, 5-(5-(tert-butylsulfonyl)-6-ethoxypyrazolo[1,5-a]pyridin-3-yl)-3,6-difluoropyridin-2-amine] | 6.00 to 6.60 | – | 7.70 to 8.60 | –
COc1cc2ncc(-c3cc(F)nc(NCC4CCN(C(C)=O)CC4)c3)n2cc1S(=O)(=O)C(C)(C)C [Example 317, 1-(4-(((4-(6-(tert-butylsulfonyl)-7-methoxyimidazo[1,2-a]pyridin-3-yl)-6-fluoropyridin-2-yl)amino)methyl)piperidin-1-yl)ethan-1-one] | > 7.30 | > 9.00 | – | –
CC(C)(C)S(=O)(=O)c1ccn2ncc(-c3cc(F)nc(NCCCO)c3)c2c1 [Example 296, 3-((4-(5-(tert-butylsulfonyl)pyrazolo [1,5-a]pyridin-3-yl)-6-fluoropyridin-2-yl)amino)propan-1-ol] | > 7.30 | – | 8.60 to 9.00 | –
COc1cc2ncc(-c3cnc(N)c(OC(F)(F)F)c3)n2cc1S(=O)(=O)C(C)(C)C [Example 88, 5-(6-(tert-butylsulfonyl)-7-methoxyimidazo[1,2-a]pyridin-3-yl)-3-(trifluoromethoxy) pyridin-2-amine] | < 6.00 | < 7.70 | – | –
CC(C)(C)S(=O)(=O)c1ccn2ncc(-c3ccc(N)nc3F)c2c1 [Example 300, 5-(5-(tert-butylsulfonyl)pyrazolo[1,5-a]pyridin-3-yl)-6-fluoropyridin-2-amine] | < 6.00 | – | < 7.70 | –
COc1cc2ncc(-c3cc(F)nc(NCCC(C)O)c3)n2cc1S(=O)(=O)C(C)(C)C (single isomer, unassigned) [Example 170, 4-((4-(6-(tert-butylsulfonyl)-7-methoxyimidazo[1,2-a]pyridin-3-yl)-6-fluoropyridin-2-yl)amino)butan-2-ol] | – | > 9.00 | – | > 7.30
Nc1nc(F)c(-c2cnc3ccccn23)cc1F [Example 121, 5-(1,3a-diaza-3-indenyl)-3,6-difluoro-2-pyridylamine] | < 6.00 | < 7.70 | – | –
COc1cc2ncc(-c3cccc(NS(=O)(=O)CC(C)C)c3)n2cc1S(=O)(=O)C(C)(C)C [Example 280, N-(3-(6-(tert-butylsulfonyl)-7-methoxyimidazo[1,2-a]pyridin-3-yl)phenyl)-2-methylpropane-1-sulfonamide] | 6.00 to 6.60 | – | 8.60 to 9.00 | –
CNc1ccnc(-c2cnc3cc(OC)c(S(=O)(=O)C(C)(C)C)cn23)c1 [Example 162, 2-(6-(tert-butylsulfonyl)-7-methoxyimidazo[1,2-a]pyridin-3-yl)-N-methylpyridin-4-amine] | < 6.00 | < 7.70 | – | –
CCCS(=O)(=O)N(C)c1cccc(-c2cnc3cc(OC)c(S(=O)(=O)C(C)(C)C)cn23)c1 [Example 256, N-(3-(6-(tert-butylsulfonyl)-7-methoxyimidazo[1,2-a]pyridin-3-yl)phenyl)-N-methylpropane-1-sulfonamide] | < 6.00 | < 7.70 | – | –
COc1cc2ncc(-c3cnc(N)s3)n2cc1S(=O)(=O)C(C)(C)C [Example 166, 5-(6-(tert-butylsulfonyl)-7-methoxyimidazo[1,2-a]pyridin-3-yl)thiazol-2-amine] | < 6.00 | < 7.70 | – | –
CCCS(=O)(=O)Nc1cc(OC)cc(-c2cnc3cc(OCC)c(S(=O)(=O)C(C)C)cn23)c1 [Example 132, N-{3-[7-ethoxy-6-(propane-2-sulfonyl)imidazo[1,2-a]pyridin-3-yl]-5-methoxyphenyl}propane-1-sulfonamide] | 6.60 to 7.30 | > 9.00 | – | –
COc1cc2ncc(-c3cc(F)nc(N[C@@H]4CC[C@H](O)C4)c3)n2cc1S(=O)(=O)C(C)(C)C (racemic) [Example 192, rac-(1R,3S)-3-((4-(6-(tert-butylsulfonyl)-7-methoxyimidazo[1,2-a]pyridin-3-yl)-6-fluoropyridin-2-yl)amino)cyclopentan-1-ol] | > 7.30 | – | > 9.00 | –
